Values quoted from earlier work, collected in patent US8288437B2, “Salts, aqueous liquid compositions containing salts of abscisic acid analogs and methods of their preparation” (Valent BioSciences Corporation, priority 2008, dated 2012).

Settings: pure water at room temperature

Question: For `CC1=CC(=O)CC(C)(C)[C@@]1(O)/C=C/C(C)=C\C(=O)O` [(S)-(+)-abscisic acid, 2-cis-,4-trans-(S)-(+)-abscisic acid], which “highest concentration that can be achieved in pure water” value is on record?
Answer: ≤ 3000 ppm
